This is an account of results in patent US20190374468A1, “Liposomal Formulations for Allosteric AKT Inhibitors” (Merck Sharp & Dohme Corp., priority 2013, published 2019).

Series [1] in a line: Visual evaluation of Compound B in the presence of sulfate salts. It is filed as physicochemical. As to conditions: 1 mg/mL in pH 3.0 citrate buffer with 0.1-1.0 M (NH4)2SO4, 20° C. Here is the method: The behavior of Compound B in the presence of sulfate salts was further evaluated visually. Vials containing 1 mg/mL Compound B in pH 3.0 citrate buffer with 0.1 M, 0.25 M, 0.5 M, and 1.0 M, respectively, of (NH4)2SO4 were visually observed at 20° C. […] Solutions became increasingly more viscous with a white/opaque appearance with increasing amounts of ammonium sulfate.

A short description of series [2]: Aqueous solubility of Compound B. The class given is physicochemical.

Take `Cl.NC1(c2ccc(-c3nc4ccn5c(=O)[nH]nc5c4cc3-c3ccccc3)cc2)CCC1` [Compound B, 8-[4-(1-aminocyclobutyl)phenyl]-9-phenyl[1,2,4]triazolo[3,4-f]-1,6-naphthyridin-3-ol]: the “time to flocculation after addition of ammonium sulfate” value in series [1] was < 30 min. In addition, the solubility (usually how much of the substance goes into solution per volume) in series [2] (0.1 M carbonate buffer, aqueous buffer, pH 8.6, 0.1M Carbonate) came to 0.7 µg/mL; in series [2] (0.1 M citrate buffer, aqueous buffer, pH 2.8, 0.1M Citrate), 10600 µg/mL; in series [2] (0.1 M citrate buffer, aqueous buffer, pH 3.9, 0.1M Citrate), 170 µg/mL; in series [2] (0.1 M citrate buffer, aqueous buffer, pH 5.0, 0.1M Citrate), 59 µg/mL; in series [2] (0.1 M phosphate buffer, aqueous buffer, pH 5.6, 0.1M Phosphate) it was 140 µg/mL; in series [2] (0.1 M phosphate buffer, aqueous buffer, pH 6.9, 0.1M Phosphate), 36 µg/mL. Also, the solubility is 4230 µg/mL in series [2] (simulated gastric fluid, pH 2.1, 0.01N HCl) and 7460 µg/mL in series [2] (un-buffered aqueous medium, water, pH 4.1, Un-buffered).
